Tested on: Pityrosporum ovale
Experiment: agar diffusion inhibition-zone test (Hemmhof-Test)
Type: cell-based
Procedure: TY-Medium 10 g Trypton + 5 g Hefeextrakt + 10 g NaCl, aufgelöst in 1000 ml H₂O, gepuffert auf pH 7,4 , autoklaviert. Testverbindung 1: Polyoxyethylen-20-stearylether Testverbindung 2: Polyoxyethylen-20-isostearylalkohol Testverbindung 3: Polyoxyethylen-21-stearylalkohl Testverbindung 4: Polyoxyethylen-5-cetyl/stearylether Testverbindung 5: Polyoxyethylen-25-Fettalkohol Testverbindung 6: Polyoxyethylen-6-cetyl/stearylether Testverbindung 7: Polyoxyethylen-C₁₂-C₁₅-Alkylether Pityrosporum ovale, isoliert von drei Patienten mit Pityrosporum-Follikulitis, Pityriasis versicolor oder seborrhoischem Ekzem wurde in einer Mischung aus 50 % TY-Medium, 30 % Olivenöl und 20 % Tween 80 suspendiert. Die drei verschiedenen Hefestämme wurden in drei parallelen Ansätzen auf einer Selektivagarplatte für pathogene Pilze (Merck AG, Darmstadt) gleichmäßig ausgespatelt. Mit Hilfe steriler Korkbohrer wurden in jede Platte mehrere kreisrunde Vertiefungen gestanzt, In die Vertiefungen mit einem Durchmesser von 5 mm wurden jeweils 25 µl der Testlösungen gegeben. Die Testlösungen stellten 1%-ige und 10%-ige Lösungen der Testsubstanzen in Ethanol dar.
Nach dreistündiger Inkubation bei 37° C wurde das verdunstete Lösungsmittel durch je 25 µl Jojobaöl ersetzt und die Platten anschließend unter Beibehaltung der Wachstumsbedingungen drei Tage inkubiert. Während dieser Zeit diffundierten die Testsubstanzen in den die Vertiefungen umgebenden Nährboden.
Antimycotisch wirksame Testverbindungen zeigten nach dreitägiger Inkubation einen mehr oder weniger deutlichen konzentrischen Hemmhof um die Vertiefungen. Die Größe dieser Hemmhöfe, wiedergegeben in Tabelle 1, ist bei vergleichbarer Substanzkonzentration ein Maß für die antimycotische Wirksamkeit der Testverbindungen. Tabelle 1
Testverbindung 8 : Polyoxyethylen-[…]-Dodecylether Testverbindung 9 : Polyoxyethylen-20-Stearylether Testverbindung 10: Polyoxyethylen-20-isostearylalkohol Testverbindung 11: Polyoxyethylen-21-stearylalkohol Testverbindung 12: Polyoxyethylen-5-Cetyl/stearylether Testverbindung 13: Polyoxyethylen-25-Fettalkohol Testverbindung 14: Polyoxyethylen-6-Cetyl/Stearylether + Stearylalkohol Testverbindung 15: Polyoxyethylen-C₁₂-C₁₅-Alkylether Von den Testverbindungen 8 - 15 wurden ethanolische Lösungen der Konzentrationen 0,5 %, 1,0 %, 5,0 % und 10,0 % hergestellt und in den Hemmhof-Test eingeführt. Die Versuchsdurchführung entspricht in ihrem Ablaufe dem zu Versuch 1 geschilderten. Die Größe der betreffenden Hemmhöfe ist in Tabelle 2 wiedergegeben. Tabelle 2

[1] = Versuch 1, 1%-ige Lösung in Ethanol, 25 µl per 5 mm well, three days incubation at 37° C, three strains isolated from patients
[2] = Versuch 1, 10%-ige Lösung in Ethanol, 25 µl per 5 mm well, three days incubation at 37° C, three strains isolated from patients
[3] = Versuch 2, Konz. 0,5 % ethanolic solution, procedure as Versuch 1
[4] = Versuch 2, Konz. 1,0 % ethanolic solution, procedure as Versuch 1
[5] = Versuch 2, Konz. 5,0 % ethanolic solution, procedure as Versuch 1
[6] = Versuch 2, Konz. 10,0 % ethanolic solution, procedure as Versuch 1

Substance	mittlerer Hemmhof-Durchmesser [1]	mittlerer Hemmhof-Durchmesser [2]	mittlerer Hemmhof-Durchmesser [3]	mittlerer Hemmhof-Durchmesser [4]	mittlerer Hemmhof-Durchmesser [5]	mittlerer Hemmhof-Durchmesser [6]
Polyoxyethylen-21-stearylalkohl [Testlösung 3]	7,0 mm	11,0 mm	–	–	–	–
Polyoxyethylen-C₁₂-C₁₅-Alkylether [Testlösung 7]	9,5 mm	15,0 mm	–	–	–	–
Polyoxyethylen-20-isostearylalkohol [Testlösung 10]	–	–	9,0 mm	9,0 mm	15,0 mm	17,3 mm
Polyoxyethylen-??-Dodecylether [Testlösung 8]	–	–	14,0 mm	15,5 mm	18,0 mm	20,7 mm
Polyoxyethylen-21-stearylalkohol [Testlösung 11]	–	–	10,0 mm	11,7 mm	12,0 mm	12,7 mm
Polyoxyethylen-25-Fettalkohol [Testlösung 13]	–	–	10,0 mm	11,5 mm	15,7 mm	18,3 mm
Polyoxyethylen-C₁₂-C₁₅-Alkylether [Testlösung 15]	–	–	9,0 mm	12,7 mm	17,0 mm	20,0 mm
Polyoxyethylen-20-isostearylalkohol [Testlösung 2]	11,0 mm	12,0 mm	–	–	–	–
Polyoxyethylen-5-Cetyl/stearylether [Testlösung 12]	–	–	11,0 mm	14,0 mm	16,5 mm	16,5 mm
Polyoxyethylen-6-cetyl/stearylether [Testlösung 6]	9,5 mm	14,0 mm	–	–	–	–
Polyoxyethylen-5-cetyl/stearylether [Testlösung 4]	8,5 mm	9,5 mm	–	–	–	–
Polyoxyethylen-25-Fettalkohol [Testlösung 5]	7,0 mm	13,0 mm	–	–	–	–
Polyoxyethylen-20-Stearylether [Testlösung 9]	–	–	10,7 mm	14,0 mm	18,7 mm	20,7 mm
Polyoxyethylen-20-stearylether [Testlösung 1]	10,0 mm	15,5 mm	–	–	–	–

Reference: patent EP0592876A1, “Antimycotic dermatological and cosmetic compositions” (Beiersdorf Aktiengesellschaft, priority 1992, dated 1994)
